The values below come from article PMC6784244 (Toxins, 2019).

On the set-up of assay [1]: species or system B. subtilis. The conditions noted are these: lipid monolayer on PBS pH 7.4, peptide 1 µM, extrapolated to delta pressure 0; -- = absence of interaction. As for the experimental part: (§1) Peptide–lipid interaction was evaluated using reconstituted lipid monolayer at the air–water interface as previously described. Pure prokaryotic and eukaryotic lipids used were: POPC (1-palmitoyl-2-oleoyl-glycero-3-phosphocholine), POPE (1-palmitoyl-2-oleoyl-sn-glycero-3-phosphoethanolamine), POPG (1-palmitoyl-2-oleoyl-sn-glycero-3-phospho-(1’-rac-glycerol), and cardiolipin, all from Avanti Polar Lipid (Alabama, USA). LTA (Lipoteichoic acid from B. subtilis) was obtained from Invivogen SAS (Toulouse, France). Pure lipids were reconstituted in chloroform:methanol (2:1, v:v) at 1 mg/mL and stored at −20 °C under nitrogen. The interaction and insertion of the ENN and BEA into lipids were evaluated through the measurement of their critical pressure of insertion as previously described. Briefly, lipids were spread using a 50 µL Hamilton’s syringe at the surface of 800 µL of sterile PBS creating a lipid monolayer at the air–water interface. Lipids were added until the surface pressure reached the desired value. After 5–10 min of incubation allowing evaporation of the solvent and stabilization of the initial surface pressure, 8 µL of ENN or BEA diluted in sterile PBS at 100 µM were injected into the 800 µL sub-phase of PBS under the lipid monolayer (pH 7.4, volume 800 µL) using a 10 µL Hamilton syringe giving a final concentration of peptides of 1 µM, preliminary experiments having shown that this concentration gave optimal insertion. The variation of the surface pressure caused by peptide injection was then continuously monitored using a fully automated microtensiometer (µTROUGH SX, Kibron Inc., Helsinki, Finland) until reaching equilibrium (maximal surface pressure increase being usually obtained after 15–25 min). The critical pressure of insertion of each peptide was determined by changing the initial pressure of lipid monolayer (from 10 and 30 mN/m) and measuring the variation of pressure caused by the insertion of the peptide. The critical pressure of insertion of each peptide in a particular lipid was determined graphically and calculated as the theoretical value of initial pressure of lipid monolayer not permissive to peptide insertion, i.e., causing a variation of pressure equal to 0 mN/m.

Assay [2] relates to Stachybotrys chartarum (DSMZ 2144). The conditions noted are these: DSMZ 2144, pH 7.
Assay [3] concerns Nisin-resistant B. subtilis (DSMZ 347).
Assay [4] deals with HEK (human normal epidermal keratinocytes). The note with it: 48 h.
For assay [5], the system named is Methicillin-resistant S. aureus strain MRSA USA300.
Assay [6] has as its system HEPG2 (human liver cell line). Type of assay: cell-based. The conditions noted are these: 48 h exposure, 0-100 µM, resazurin fluorescence; means ± S.D, n = 3; read-out: IC50 on cell viability, HEPG2. Here is the method:
(§2) The impact of ENN or BEA on the viability of human cells were evaluated as previously described. Cells used were human normal lung epithelial cells BEAS-2B (ATCC CRL-9609), human intestinal cell line Caco-2 (ATCC HTB-37), human normal epidermal keratinocytes (HEK) (from Lonza), human liver cell line HEPG2 (ATCC HB-8065), human normal endothelial cells (Human Umbilical Vein Endothelial Cells, HUVEC) (from Sigma-Aldrich, Lyon, France), and human gastric cell line N87 (ATCC CRL-5822). BEAS-2B, Caco-2 and HEPG2 cells were cultured in DMEM supplemented with 10% fetal calf serum (FCS), 1% L-glutamine, and 1% antibiotics (all from Invitrogen (Carlsbad, CA, USA). N87 cells were cultured in RPMI media supplemented with 10% fetal calf serum (FCS), 1% L-glutamine, and 1% antibiotics (all from Invitrogen, Carlsbad, CA, USA). HEK and HUVEC cells were cultured in specific medium (from Lonza and Sigma Aldrich, respectively). Cells were routinely grown on 25 cm^2 flasks and maintained in a 5% CO2 incubator at 37 °C. For toxicity assay, human cells grown on 25 cm^2 flasks were detached using trypsin-EDTA solution (from Thermofisher), counted using Malassez counting chamber, diluted in appropriate culture media, and seeded into 96-well cell culture plates (Greiner bio-one, Paris, France) at approximately 10^4 cells per well. The cells were left to grow for 48–72 h at 37 °C in a 5% CO2 incubator until they reached confluence. Media from wells was then aspirated and cells were treated with 100 µL of appropriate culture media containing increasing concentrations of ENN or BEA (from 0 to 100 µM, 1:2 serial dilution). […] The plates were then incubated at 37 °C for 48 h. Resazurin-based in vitro toxicity assay kit (from Sigma-Aldrich, Lyon, France) was then used to assess the viability of the cells following manufacturer’s instructions. Briefly, resazurin stock solution was diluted 1:10 in sterile PBS containing calcium and magnesium (PBS^++, pH 7.4). Plates were aspirated and 100 µL of the diluted solution were added per wells. After 4 h incubation at 37 °C, fluorescence intensity was measured using microplate reader (Biotek, Synergy Mx, Colmar, France) with an excitation wavelength of 530 nm and an emission wavelength of 590 nm. The fluorescence values were normalized by the controls (untreated cells) and expressed as percentage of cell viability. The IC50 values of ENN or BEA (i.e., the concentrations causing a reduction of 50% of the cell viability) were calculated using GraphPad® Prism 7 software (San Diego, CA, USA). Experiments were conducted in triplicate (n = 3).
(The colour change of resazurin is a common sign of viable cells or microbes.)

In assay [7] the test system is BEAS-2B (human normal lung epithelial cells). The format is cell-based. The note with it: 48 h exposure, 0-100 µM, resazurin fluorescence; means ± S.D, n = 3; read-out: IC50 on cell viability, BEAS-2B. Here is the method:
as §2

For assay [8], the system named is HUVEC (human normal endothelial cells). Type of assay: cell-based. The conditions noted are these: 48 h exposure, 0-100 µM, resazurin fluorescence; means ± S.D, n = 3; read-out: IC50 on cell viability, HUVEC. Here is the method:
as §2

In assay [9] the test system is Caco-2 (human intestinal cell line). Type of assay: cell-based. The conditions noted are these: 48 h exposure, 0-100 µM, resazurin fluorescence; means ± S.D, n = 3; read-out: IC50 on cell viability, Caco-2. Here is the method:
as §2

The subject of assay [10] is Bacillus subtilis (ATCC 6633).
The conditions of assay [11]: lipid monolayer on PBS pH 7.4, peptide 1 µM, extrapolated to delta pressure 0; -- = absence of interaction. As for the experimental part: as §1
The test system of assay [12] is Pseudomonas aeruginosa (ATCC CRM-9027).
A further assay concerns C. perfringens. Type of assay: cell-based, Clostridium perfringens.
The test system of assay [13] is Clostridium perfringens (ATCC 13124).

≈ marks a conversion by molar mass, not a printed value.

As for `CC[C@H](C)[C@H]1C(=O)O[C@H](C(C)C)C(=O)N(C)[C@@H]([C@@H](C)CC)C(=O)O[C@H](C(C)C)C(=O)N(C)[C@@H](C(C)C)C(=O)O[C@H](C(C)C)C(=O)N1C` [ENN A1], in assay [1], the “critical pressure of insertion, LTA” value is on record as 53.71 mN/m. Further, the “MIC, S. chartarum” value in assay [2] was more than 100 µM. In addition, the “MIC, B. subtilis NR” value in assay [3] is given as 25 µM (≈ 16.7 µg/mL). Also, the IC50 worked out at 2.3 ± 0.1 µM in assay [4]; 5.6 ± 1.1 µM in assay [6]; 6.4 ± 1.5 µM in assay [7]; 4.6 ± 0.9 µM in assay [8]; 2.7 ± 0.5 µM in assay [9]. In addition, the “MIC, S. aureus MRSA” value in assay [5] fell in the range of 12.5 to 25 µM. The “MIC, B. subtilis” value in [10] is 12.5 to 25 µM. For the same molecule, in [11], the “critical pressure of insertion, POPG” value is listed as 41.10 mN/m. Further, the “MIC, P. aeruginosa” value in assay [12] is on record as more than 100 µM. The Known/possible target entry in the assay on C. perfringens is listed as “RNA biosynthesis”. Further, in the assay with C. perfringens, the “Observed Morphology” value is “• No cell elongation • DNA condensed in one filament crossing the cells”.

As to `CC[C@H](C)[C@H]1C(=O)O[C@H](C(C)C)C(=O)N(C)[C@@H]([C@@H](C)CC)C(=O)O[C@H](C(C)C)C(=O)N(C)[C@@H]([C@@H](C)CC)C(=O)O[C@H](C(C)C)C(=O)N1C` [ENN A], the “critical pressure of insertion, LTA” value in assay [1] was 56.1 mN/m. The “MIC, S. chartarum” value in [2] is given as more than 100 µM. Also, in assay [3], the “MIC, B. subtilis NR” value was 6.25 to 12.5 µM. Besides, the concentration for half-maximal inhibition (IC50) was 2 ± 0.1 µM in assay [4]; 3 ± 0.7 µM in assay [6]; 5.7 ± 1.2 µM in [7]; 2.8 ± 0.6 µM in [8]; 1.1 ± 0.2 µM in assay [9]. Further, in assay [5], the “MIC, S. aureus MRSA” value was 6.25 to 12.5 µM. The “MIC, B. subtilis” value in assay [10] is 6.25 to 12.5 µM. Also, in assay [11], the “critical pressure of insertion, POPG” value is 44.75 mN/m. Also, the “MIC, P. aeruginosa” value in assay [12] was more than 100 µM. In addition, the Known/possible target result in the assay with C. perfringens is on record as “RNA biosynthesis”. The “Observed Morphology” value in the assay with C. perfringens is “• Some cell elongation • DNA condensed in one filament crossing the cells”. Further, the “MIC, C. perfringens” value in [13] amounted to 3.12 µM (≈ 2.13 µg/mL).

Consider `CC[C@H](C)[C@H]1C(=O)O[C@H](C(C)C)C(=O)N(C)[C@@H](C(C)C)C(=O)O[C@H](C(C)C)C(=O)N(C)[C@@H](C(C)C)C(=O)O[C@H](C(C)C)C(=O)N1C` [ENN B1], for which the “critical pressure of insertion, LTA” value in assay [1] is on record as 43.62 mN/m. The “MIC, S. chartarum” value in assay [2] was more than 100 µM. For the same molecule, the “MIC, B. subtilis NR” value in assay [3] was 50 µM (≈ 32.7 µg/mL). Besides, the IC50 in assay [4] came out at 3.3 ± 0.5 µM; in assay [6], 5.6 ± 1.4 µM; in assay [7], 12.7 ± 2.8 µM; in assay [8], 7 ± 1.1 µM; in [9], 3.1 ± 0.5 µM. The “MIC, S. aureus MRSA” value in assay [5] stood at 25 µM (≈ 16.3 µg/mL). Besides, in [10], the “MIC, B. subtilis” value fell in the range of 25 to 50 µM. Besides, the “critical pressure of insertion, POPG” value in assay [11] is 41.71 mN/m. Besides, in assay [12], the “MIC, P. aeruginosa” value is more than 100 µM. For the same molecule, the Known/possible target entry with C. perfringens is reported as “Protein biosynthesis”. The “Observed Morphology” value with C. perfringens was “• Some cell elongation (1.5–2 times compared to control) • DNA condensed in 1–4 circles per cells”. Further, in assay [13], the “MIC, C. perfringens” value was determined as 6.25 µM (≈ 4.09 µg/mL).

In the case of `CC(C)[C@H]1C(=O)O[C@H](C(C)C)C(=O)N(C)[C@@H](C(C)C)C(=O)O[C@H](C(C)C)C(=O)N(C)[C@@H](C(C)C)C(=O)O[C@H](C(C)C)C(=O)N1C` [ENN B], in [1], the “critical pressure of insertion, LTA” value was 38.9 mN/m. Further, the “MIC, S. chartarum” value in assay [2] is reported as more than 100 µM. Besides, the “MIC, B. subtilis NR” value in [3] is given as more than 100 µM. Further, the IC50 came to 54.2 ± 35.3 µM in [4]; 3.4 ± 0.7 µM in assay [6]; 43.7 ± 7.7 µM in assay [7]; 17.3 ± 3.3 µM in [8]; 4.6 ± 1.3 µM in [9]. Moreover, the “MIC, S. aureus MRSA” value in assay [5] was more than 100 µM. In [10], the “MIC, B. subtilis” value is listed as more than 100 µM. Besides, the “critical pressure of insertion, POPG” value in assay [11] is 34.67 mN/m. Further, in assay [12], the “MIC, P. aeruginosa” value is more than 100 µM. For the same molecule, the Known/possible target entry with C. perfringens was “Protein biosynthesis”. Moreover, the “Observed Morphology” value in the assay with C. perfringens was “• Some cell elongation (1.5–2 times compared to control) • DNA condensed in 1–4 circles per cells”. For the same molecule, the “MIC, C. perfringens” value in [13] is given as 12.5 µM (≈ 8 µg/mL).

The term IC50 denotes the concentration needed to halve the response being measured.
